Where a name gives a salt, the structure may show the parent alone.
Key:
A-427 [1] = test: Cytotoxicity against human A-427 cells assessed as reduction in cell viability by MTT assay; assay type: functional, cell-based
HT-29 = test: Cytotoxicity against human HT-29 cells assessed as reduction in cell viability by MTT assay; assay type: functional, cell-based
A549 = test: Cytotoxicity against human A549 cells assessed as reduction in cell viability by MTT assay; assay type: functional, cell-based
HCT-116 = test: Cytotoxicity against human HCT-116 cells assessed as reduction in cell viability by MTT assay; assay type: functional, cell-based
L02 = test: Cytotoxicity against human L02 cells assessed as reduction in cell viability by MTT assay; assay type: cell-based
MCF7 [2] = test: Cytotoxicity against human MCF7 cells assessed as reduction in cell viability by MTT assay; assay type: functional, cell-based
HeLa = test: Cytotoxicity against human HeLa cells assessed as reduction in cell viability by MTT assay; assay type: functional, cell-based
HepG2 = test: Cytotoxicity against human HepG2 cells assessed as reduction in cell viability by MTT assay; assay type: functional, cell-based
A-427 [3] = test: Cell cycle arrest in human A-427 cells assessed as accumulation at G0/G1 phase at 5 uM measured after 24 hrs by PI staining based flow cytometry (reference value: 48.06%); assay type: functional
MCF7 [4] = test: Induction of apoptosis in human MCF7 cells assessed as early apoptotic cells at 15 uM measured after 24 hrs by Annexin V-FITC/propidium iodide staining based flow cytometric analysis (reference value: 1.49%); assay type: functional
A-427 [5] = test: Cell cycle arrest in human A-427 cells assessed as accumulation at G0/G1 phase at 2.5 uM measured after 24 hrs by PI staining based flow cytometry (reference value: 48.06%); assay type: functional
A-427 [6] = test: Induction of apoptosis in human A-427 cells assessed as early apoptotic cells at 2.5 uM measured after 24 hrs by Annexin V-FITC/propidium iodide staining based flow cytometric analysis (reference value: 6.58%); assay type: functional
A-427 [7] = test: Induction of apoptosis in human A-427 cells assessed as late apoptotic cells at 2.5 uM measured after 24 hrs by Annexin V-FITC/propidium iodide staining based flow cytometric analysis (reference value: 2.06%); assay type: functional
A-427 [8] = test: Induction of apoptosis in human A-427 cells assessed as early apoptotic cells at 5 uM measured after 24 hrs by Annexin V-FITC/propidium iodide staining based flow cytometric analysis (reference value: 6.58%); assay type: functional
A-427 [9] = test: Cell cycle arrest in human A-427 cells assessed as accumulation at S phase at 10 uM measured after 24 hrs by PI staining based flow cytometry (reference value: 33.14%); assay type: functional
A-427 [10] = test: Cell cycle arrest in human A-427 cells assessed as accumulation at S phase at 5 uM measured after 24 hrs by PI staining based flow cytometry (reference value: 33.14%); assay type: functional
A-427 [11] = test: Cell cycle arrest in human A-427 cells assessed as accumulation at S phase at 2.5 uM measured after 24 hrs by PI staining based flow cytometry (reference value: 33.14%); assay type: functional
MCF7 [12] = test: Cell cycle arrest in human MCF7 cells assessed as accumulation at G2/M phase at 4.5 uM measured after 24 hrs by PI staining based flow cytometry (reference value: 15.28%); assay type: functional
MCF7 [13] = test: Cell cycle arrest in human MCF7 cells assessed as accumulation at G2/M phase at 3 uM measured after 24 hrs by PI staining based flow cytometry (reference value: 15.28%); assay type: functional
MCF7 [14] = test: Cell cycle arrest in human MCF7 cells assessed as accumulation at G2/M phase at 1.5 uM measured after 24 hrs by PI staining based flow cytometry (reference value: 15.28%); assay type: functional
MCF7 [15] = test: Induction of apoptosis in human MCF7 cells assessed as late apoptotic cells at 5 uM measured after 24 hrs by Annexin V-FITC/propidium iodide staining based flow cytometric analysis (reference value: 0.38%); assay type: functional
MCF7 [16] = test: Induction of apoptosis in human MCF7 cells assessed as late apoptotic cells at 10 uM measured after 24 hrs by Annexin V-FITC/propidium iodide staining based flow cytometric analysis (reference value: 0.38%); assay type: functional
MCF7 [17] = test: Induction of apoptosis in human MCF7 cells assessed as early apoptotic cells at 10 uM measured after 24 hrs by Annexin V-FITC/propidium iodide staining based flow cytometric analysis (reference value: 1.49%); assay type: functional
A-427 [18] = test: Cell cycle arrest in human A-427 cells assessed as accumulation at G0/G1 phase at 10 uM measured after 24 hrs by PI staining based flow cytometry (reference value: 48.06%); assay type: functional
A-427 [19] = test: Induction of apoptosis in human A-427 cells assessed as early apoptotic cells at 10 uM measured after 24 hrs by Annexin V-FITC/propidium iodide staining based flow cytometric analysis (reference value: 6.58%); assay type: functional
MCF7 [20] = test: Induction of apoptosis in human MCF7 cells assessed as late apoptotic cells at 15 uM measured after 24 hrs by Annexin V-FITC/propidium iodide staining based flow cytometric analysis (reference value: 0.38%); assay type: functional
MCF7 [21] = test: Cell cycle arrest in human MCF7 cells assessed as accumulation at G0/G1 phase at 3 uM measured after 24 hrs by PI staining based flow cytometry (reference value: 50.58%); assay type: functional
MCF7 [22] = test: Induction of apoptosis in human MCF7 cells assessed as early apoptotic cells at 5 uM measured after 24 hrs by Annexin V-FITC/propidium iodide staining based flow cytometric analysis (reference value: 1.49%); assay type: functional
MCF7 [23] = test: Cell cycle arrest in human MCF7 cells assessed as accumulation at S phase at 4.5 uM measured after 24 hrs by PI staining based flow cytometry (reference value: 34.14%); assay type: functional
A-427 [24] = test: Induction of apoptosis in human A-427 cells assessed as late apoptotic cells at 5 uM measured after 24 hrs by Annexin V-FITC/propidium iodide staining based flow cytometric analysis (reference value: 2.06%); assay type: functional
A-427 [25] = test: Cell cycle arrest in human A-427 cells assessed as accumulation at G2/M phase at 2.5 uM measured after 24 hrs by PI staining based flow cytometry (reference value: 18.80%); assay type: functional
A-427 [26] = test: Cell cycle arrest in human A-427 cells assessed as accumulation at G2/M phase at 10 uM measured after 24 hrs by PI staining based flow cytometry (reference value: 18.80%); assay type: functional
A-427 [27] = test: Induction of apoptosis in human A-427 cells assessed as late apoptotic cells at 10 uM measured after 24 hrs by Annexin V-FITC/propidium iodide staining based flow cytometric analysis (reference value: 2.06%); assay type: functional
MCF7 [28] = test: Cell cycle arrest in human MCF7 cells assessed as accumulation at S phase at 1.5 uM measured after 24 hrs by PI staining based flow cytometry (reference value: 34.14%); assay type: functional
MCF7 [29] = test: Cell cycle arrest in human MCF7 cells assessed as accumulation at S phase at 3 uM measured after 24 hrs by PI staining based flow cytometry (reference value: 34.14%; assay type: functional
MCF7 [30] = test: Cell cycle arrest in human MCF7 cells assessed as accumulation at G0/G1 phase at 4.5 uM measured after 24 hrs by PI staining based flow cytometry (reference value: 50.58%); assay type: functional
MCF7 [31] = test: Cell cycle arrest in human MCF7 cells assessed as accumulation at G0/G1 phase at 1.5 uM measured after 24 hrs by PI staining based flow cytometry (reference value: 50.58%); assay type: functional
A-427 [32] = test: Cell cycle arrest in human A-427 cells assessed as accumulation at G2/M phase at 5 uM measured after 24 hrs by PI staining based flow cytometry (reference value: 18.80%); assay type: functional

## C[C@H]1C/C=C/[C@H]2C(=O)[C@H](C)[C@@H](C)[C@H]3[C@H](Cc4c[nH]c5ccccc45)NC(=O)[C@]32C(=O)CCCC1
A-427 [1]
  IC50: > 50 µM
HT-29
  IC50: > 50 µM
A549
  IC50: > 50 µM
HCT-116
  IC50: > 50 µM
L02
  IC50: > 50 µM
MCF7 [2]
  IC50: > 50 µM
HeLa
  IC50: > 50 µM
HepG2
  IC50: > 50 µM

## C=C1[C@@H](C)[C@H]2[C@H](Cc3c[nH]c4ccccc34)NC(=O)[C@]23C(=O)CCCC[C@@H](C)C/C=C/[C@H]3[C@@H]1O
A-427 [1]
  IC50: > 50 µM
HT-29
  IC50: > 50 µM
A549
  IC50: 40.4 µM
HCT-116
  IC50: 45.3 µM
L02
  IC50: > 50 µM
MCF7 [2]
  IC50: > 50 µM
HeLa
  IC50: > 50 µM
HepG2
  IC50: > 50 µM

## CO[C@@H]1/C=C\[C@@H](C)C/C=C/[C@H]2[C@H](O)C(C)=C(C)[C@H]3[C@H](Cc4c[nH]c5ccccc45)NC(=O)[C@@]23C(=O)C1
A-427 [1]
  IC50: > 50 µM
HT-29
  IC50: > 50 µM
A549
  IC50: 21.5 µM
HCT-116
  IC50: 26.1 µM
L02
  IC50: > 50 µM
MCF7 [2]
  IC50: > 50 µM
HeLa
  IC50: 41.5 µM
HepG2
  IC50: > 50 µM

## CC1=C(C)[C@H]2[C@H](Cc3c[nH]c4ccccc34)NC(=O)[C@]23C(=O)CCCC[C@@H](C)C/C=C/[C@H]3[C@@H]1O
A-427 [1]
  IC50: > 50 µM
HT-29
  IC50: > 50 µM
A549
  IC50: > 50 µM
HCT-116
  IC50: > 50 µM
L02
  IC50: 46.3 µM
MCF7 [2]
  IC50: > 50 µM
HeLa
  IC50: 18.9 µM
HepG2
  IC50: > 50 µM

## CO[C@@H]1CC(=O)C[C@@H](C)C/C=C/[C@H]2C=C(C)[C@@H](C)[C@H]3[C@H](Cc4c[nH]c5ccccc45)NC(=O)[C@]32C1=O
A-427 [1]
  IC50: > 50 µM
HT-29
  IC50: 43.8 µM
A549
  IC50: 23.3 µM
HCT-116
  IC50: 30.9 µM
L02
  IC50: > 50 µM
MCF7 [2]
  IC50: > 50 µM
HeLa
  IC50: > 50 µM
HepG2
  IC50: 44.4 µM

## CC1=C[C@@H]2/C=C/C[C@H](C)CC(=O)[C@@H]3O[C@H]3C(=O)[C@]23C(=O)N[C@@H](Cc2c[nH]c4ccccc24)[C@@H]3[C@@H]1C
A-427 [1]
  IC50: > 50 µM
HT-29
  IC50: 40.4 µM
A549
  IC50: 44 µM
HCT-116
  IC50: > 50 µM
L02
  IC50: > 50 µM
MCF7 [2]
  IC50: > 50 µM
HeLa
  IC50: > 50 µM
HepG2
  IC50: 37.3 µM

## CC1=C[C@@H]2/C=C/C[C@H](C)CCCCC(=O)[C@]23C(=O)N[C@@H](Cc2c[nH]c4ccccc24)[C@@H]3[C@@H]1C
A-427 [1]
  IC50: 13.8 µM
HT-29
  IC50: > 50 µM
A549
  IC50: > 50 µM
HCT-116
  IC50: 38.5 µM
L02
  IC50: > 50 µM
MCF7 [2]
  IC50: > 50 µM
HeLa
  IC50: 20.3 µM
HepG2
  IC50: > 50 µM

## CC1=C(C)[C@H]2[C@H](Cc3c[nH]c4ccccc34)NC(=O)[C@]23C(=O)/C=C\CC[C@@H](C)C/C=C/[C@H]3[C@@H]1O
A-427 [3]
  Activity: 41.36%
A-427 [1]
  IC50: 7.5 µM
MCF7 [4]
  Activity: 12.83%
A-427 [5]
  Activity: 45.18%
A-427 [6]
  Activity: 18.24%
A-427 [7]
  Activity: 32.65%
HT-29
  IC50: 8.8 µM
A-427 [8]
  Activity: 20.64%
A-427 [9]
  Activity: 22.03%
A-427 [10]
  Activity: 21.59%
A-427 [11]
  Activity: 20.59%
MCF7 [12]
  Activity: 82.7%
MCF7 [13]
  Activity: 71.45%
A549
  IC50: 6.9 µM
MCF7 [14]
  Activity: 58.41%
MCF7 [15]
  Activity: 11.69%
MCF7 [16]
  Activity: 15.06%
MCF7 [17]
  Activity: 11.17%
A-427 [18]
  Activity: 35.56%
A-427 [19]
  Activity: 31.16%
MCF7 [20]
  Activity: 21.26%
MCF7 [21]
  Activity: 17.36%
HCT-116
  IC50: 11.2 µM
MCF7 [22]
  Activity: 10.35%
MCF7 [23]
  Activity: 8.06%
L02
  IC50: 41.8 µM
MCF7 [2]
  IC50: 6.8 µM
A-427 [24]
  Activity: 33.06%
HeLa
  IC50: 10.1 µM
A-427 [25]
  Activity: 34.23%
A-427 [26]
  Activity: 42.41%
A-427 [27]
  Activity: 33.54%
MCF7 [28]
  Activity: 17.94%
MCF7 [29]
  Activity: 11.19%
MCF7 [30]
  Activity: 9.24%
HepG2
  IC50: 10.7 µM
MCF7 [31]
  Activity: 23.65%
A-427 [32]
  Activity: 37.05%

## CC(=O)O[C@@H]1CC(=O)C[C@@H](C)C/C=C/[C@H]2[C@H](O)C(C)=C(C)[C@H]3[C@H](Cc4c[nH]c5ccccc45)NC(=O)[C@@]23C1=O
A-427 [1]
  IC50: > 50 µM
HT-29
  IC50: > 50 µM
A549
  IC50: 15.9 µM
HCT-116
  IC50: 21.2 µM
L02
  IC50: > 50 µM
MCF7 [2]
  IC50: > 50 µM
HeLa
  IC50: > 50 µM
HepG2
  IC50: > 50 µM

## COc1cccc2c1C(=O)c1c(O)c3c(c(O)c1C2=O)C[C@@](O)(C(=O)CO)C[C@@H]3O[C@H]1C[C@H](N)[C@H](O)[C@H](C)O1 [DOXORUBICIN HYDROCHLORIDE]
HT-29
  IC50: 2.6 µM
HCT-116
  IC50: 2.9 µM
L02
  IC50: 0.7 µM
HepG2
  IC50: 0.4 µM

— ChEMBL document CHEMBL4808193, “[11]-Chaetoglobosins from Pseudeurotium bakeri Induce G2/M Cell Cycle Arrest and Apoptosis in Human Cancer Cells” (J Nat Prod, 2021)
